Read-outs that look alike come from different tables or passages of the source.
What was measured:
U-373MG = experiment: MTT overall cell growth, U-373MG cells; assay type: cell-based; settings: Homo sapiens
Procedure: Tests were performed in order to rapidly, i.e. within 5 days, measure the effect of the compound of example 2 on the overall cell growth. The test measures the number of metabolically active living cells that are able to transform the yellow product 3-(4,5-dimethylthiazol-2-yl)-2,5-diphenyl tetrazolium bromide (herein referred as MTT) into the blue product formazan dye by mitochondrial reduction. The amount of formazan obtained at the end of the experiment, measured by means of a spectrophotometer, is directly proportional to the number of living cells. Optical density determination thus enables a quantitative measurement of the effect of the investigated compounds as compared to the control condition (untreated cells) and/or to other reference compounds.
Six human cancer cell lines described in table 1 were used in the following MTT tests. These cell lines cover six histological cancer types, being prostate, glioma, pancreas, colon, lung and breast cancers. Cells were allowed to grow in 96 well micro-wells with a flat bottom with an amount of 100 μl of cell suspension per well with 1,000 to 4,000 cells/well depending on the cell type used. Each cell line was seeded in a well known MEM 10% serum culture medium. […]
After 72 hours of incubation at 37° C. with (experimental conditions) or without (control condition) the compound to be tested, the medium was replaced by 100 μl MTT dissolved in RPMI (1640 without phenol red) at a concentration of 1 mg/ml. […] The micro-wells were shaken for 5 minutes and read on a spectrophotometer at wavelengths of 570 nm (maximum formazan absorbance) and 630 nm (back-ground noise).
For each experimental condition, the mean optical density was calculated, as well as the percentage of remaining living cells in comparison with the control.
(§1) The overall growth of human cancer cell lines was determined by means of the calorimetric MTT (3-[4,5-dimethylthiazol-2-yl]-diphenyl tetrazolium bromide; Sigma) assay, as detailed previously.

A549 = experiment: MTT colorimetric assay, A549 cells; assay type: cell-based; settings: Homo sapiens, 72 h, 3 days of culturing, mean of six determinations, read-out: IC50 (μM) In Vitro Growth Inhibition
Procedure: as §1

DU-145 = experiment: Senescence-associated β-galactosidase staining, DU-145; assay type: cell-based, human; settings: 10 μM, 72 hours
Excerpt: Features typical of senescence have been induced by the compound of example 2 in human DU-145 prostate cancer cells. A senescent cell is known to typically show morphological changes, such as a flattened cytoplasm and increased granularity. The induction of senescence-associated β-galactosidase activity is a specific event occurring in cells undergoing senescence, a feature that was observed once more in the current study (according to the protocol found in Dimri et al., A biomarker that identifies senescent human cells in culture and in aging skin in vivo, Proc Natl Acad Sci USA. (1995) 92(20):9363-7), as evidenced in FIG. 4. Moderate doses (nM range) of doxorubicin (ADR) are known to induce senescence in wild-type human cancer cells. We therefore used doxorubicin as a positive control in our experiment.
After the indicated treatments, cells were washed in PBS, fixed for 3 to 5 minutes (at room temperature) in 2% formaldehyde/0.2% glutaraldehyde, washed and incubated at 37° C. […] 1995; 92:9363-9367.], after fixing and staining with X-Gal, the number of cells positive for the SA-β-Gal activity (intense blue staining) was then counted independently by two different individuals (on 400 cells/plate). […]
Human PC-3 and DU-145 prostate cancer cells cultured in 0 or 10 μM UNBS5162 or 20 nM Adriamycin for 72 hours were evaluated by SA-β-Gal staining. […]

CXCL-1 and CXCL-8 = experiment: ELISA of CXCL1 and CXCL8, OE21 cells; assay type: cell-based, human; settings: 5×1 μM
Procedure: ELISA determination of CXCL1 and CXCL8 (IL-8) protein levels in untreated and 5×1 μM UNBS5162-treated OE21 cells. “5×1 μM” means that tumor cells were treated in vitro for one day with 1 μM UNBS5162 and then the culture medium was replaced by fresh medium containing 1 μM UNBS5162; this procedure of renewal of cell medium containing 1 μM UNBS5162 was repeated for five consecutive days, with determination of chemokine concentration being performed 24 h (+24 h) or 72 h (+72 h) after the 5th (last) treatment of tumor cells with UNBS5162. The concentrations of the two specific chemokines (expressed as pg/mL) were normalized by the cell number determined in each sample. Each sample was assessed in triplicate. The data are presented as means (grey columns)±SEM (thin bars) in FIG. 9.

MXT-HI mammary tumor = experiment: Syngeneic MXT-HI mammary tumor s.c., with or without irradiation; settings: for Mean tumor size: UNBS5162 i.v. (5i × 3w) 10 mg/kg, alone or with 10 gray; for Number of mice dead or sacrificed: 11 mice per group
Procedure: The MXT-HI models used in our laboratory involve subcutaneously injecting MXT-HI tumor fragments into the flanks of B6D2F1 mice.
After the adaptation period, animals were inoculated subcutaneously with MXT-HI tumor. Briefly, “bank animals” were sacrificed and MXT-HI tumors were isolated from the animals, kept in saline solution and minced into 1 mm^3 pieces. These pieces (one/animal) were randomly s.c. inoculated into the right flanks of mice by means of a trocar.
UNBS5162 was dosed intravenously in accordance with UNBS procedure #002. The dosing volume was fixed at 200 μL/mouse. Group 1: Control (lactic acid vehicle) (5i/week×3 weeks) Group 2: UNBS5162 (10 mg/kg, 5i/week×3 weeks) Group 3: Irradiated (10 gray, 1 irradiation) Group 4: Irradiated (10 gray, 1 irradiation)+UNBS5162 (10 mg/kg, 5i/week×3 weeks) For group 4, the first administration of UNBS5162 was performed at the morning of the day of irradiation (5 Dec. 2007).
Briefly, animals were anaesthetized, using a syringe, with 150 μl of Rompun/Ketalar mixture (1 part Rompun/1 part Ketalar/4.5 parts saline) injected intraperitoneally. After approximately 5 minutes and after verification that animals were completely asleep, an irradiation simulation was performed first to focalise irradiation in the tumor centre and to avoid to irradiate healthy tissue. Simulation was performed individually on each animal to adapt irradiation to tumor size. In a second time, the tumor was irradiated with a dose of 10 gray (5 MV photons from a linear accelerator at a source skin distance of 1 m).
For technical reasons, irradiation was not performed the same day for all animals. Tumor irradiation was performed on day 14 post-graft for group 4 (irradiated+UNBS5162) and on day 16 post-graft for group 3 (irradiated alone).
Tumor growths were recorded 3 times weekly on Monday, Wednesday and Friday.
Statistical comparisons between the control group and the treated groups were performed with the non-parametric Mann-Whitney U-test. Survival analysis was done either by calculating the % T/C-value or with Kaplan-Meier analysis and Log-rank statistics. All statistical analyses were carried out using Statistica software (Statsoft, Tulsa, Okla.). The cut-off level for statistical significance was set at a p-value of p<0.05.
The T/C-values were calculated by dividing the day of death or sacrifice of the median mouse in a treated group T by the day of death or sacrifice of the median mouse in the control group C, the latter said to be 100%.

[1] = UNBS5162 10 mg/kg i.v. 5i×3w, alone or with 1×10 gray

CN(C)CCN1C(=O)c2cccc3cc(NC(N)=O)cc(c23)C1=O [UNBS5162, N-{2-[2-(dimethylamino)ethyl]-1,3-dioxo-2,3-dihydro-1H-benzo[de]isoquinolin-5-yl}urea]
IC50 (U-373MG; 72 h, U373-MG, 3 days of culturing, mean of six determinations, read-out: IC50 (μM) In Vitro Growth Inhibition): 4.7 µM | IC50 (U-373MG; U373 MG, U-373MG, 72 hours incubation, range of molar concentrations, read-out: IC50): 5 to 10 µM | IC50 (A549): 21.2 µM | senescence-associated β-galactosidase expression (DU-145): induced marked expression of SA-β-Gal | senescence-associated β-galactosidase expression (DU-145; listed as example 2): induced a similar percentage of senescence-associated β-galactosidase positive staining as 20 nM doxorubicin | CXCL-1 and CXCL-8 protein levels (ELISA) (CXCL-1 and CXCL-8): a marked decrease in CXCL-1 and CXCL-8 | Mean tumor size (MXT-HI mammary tumor; Day 14): 178.52 mm^2 | Mean tumor size (MXT-HI mammary tumor; Day 16): 250.08 mm^2 | Mean tumor size (MXT-HI mammary tumor; Day 19): 414.11 mm^2 | Mean tumor size (MXT-HI mammary tumor; Day 21): 423.71 mm^2 | Mean tumor size (MXT-HI mammary tumor; Day 23): 481.56 mm^2 | Mean tumor size (MXT-HI mammary tumor; Day 26): 619.21 mm^2 | effect on tumor area (MXT-HI mammary tumor; [1]): no relevant effects | survival of MXT-HI-bearing mice (MXT-HI mammary tumor; [1]): No prolongation of survival | Number of mice dead or sacrificed (MXT-HI mammary tumor; day 19 post graft): 1 | Number of mice dead or sacrificed (MXT-HI mammary tumor; day 21 post graft): 2 | Number of mice dead or sacrificed (MXT-HI mammary tumor; day 23 post graft): 3 | Number of mice dead or sacrificed (MXT-HI mammary tumor; day 26 post graft): 4 | Number of mice dead or sacrificed (MXT-HI mammary tumor; day 28 post graft): 1
